Assay results as given in patent US8552002B2 (Novartis AG, priority 2004, dated 2013).
Where two headings read alike, the source gives them in different places.

Legend:
KDR = target: T1, KDR (Homo sapiens, UniProt P35968); test: Inhibitory activity against KDR (VEGF-R2), in vitro data of Examples 170 and 207; type: biochemical; settings: read-out: KDR inhibition at 10 μM
T1 construct: expressed in transfected cells; host or cells: CHO cells
In short: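 KDR tyrosine phosphorylation detected by luminescence after overnight 4° C capture of 20 μg lysate protein with PY20:AP antibody. Lysates came from cells given compound for 2 h at 37° C, then final 20 ng/ml VEGF for 5 min; compound-free medium as control.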

FGFR3 (K650E) = target: T2, FGFR3 (K650E) (Homo sapiens, UniProt P22607, K650E); test: Recombinant GST-FGFR-3-K650E tyrosine kinase assay (33P into poly(Glu,Tyr)); type: biochemical
T2 construct: amino acids 411-806 of the cytoplasmic domain of human FGFR-3, N-terminally fused to GST; made in house; host or cells: Sf9 insect cells (baculovirus)

c-Abl = c-Abl (Homo sapiens, UniProt P00519); test: Inhibitory activity against c-Abl (Example 207); type: biochemical; settings: Examples 171 to 206
Tek = target: T3, Tek (Homo sapiens, UniProt Q02763); test: Recombinant GST-Tek (Tie-2) tyrosine kinase assay (33P into poly(Glu,Tyr)); type: biochemical; settings: Examples 1 to 169
T3 construct: amino acids 773-1124 of the cytoplasmic kinase domain of human Tek, N-terminally fused to GST; made in house; host or cells: Sf9 insect cells (baculovirus)
In short: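 Read-out is filter-bound 33P in poly(Glu,Tyr) 4:1 (10 μg/mL) after 30 min at ambient temperature with 4.0 μM ATP. Enzyme: 150 ng human GST-Tek (aa 773-1124) from insect cells, in Tris pH 7.5 with Mn2+/Mg2+ and vanadate. IC50 fitted linearly over four concentrations, usually 0.01-10 μM.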

[1] = 10 μM, Examples 171 to 206, read-out: FGFR3 inhibition at 10 μM
[2] = 10 μM, Examples 1 to 169, read-out: FGFR3 (K650E) inhibition at 10 μM

T2 sequence (P22607 411-806 K650E): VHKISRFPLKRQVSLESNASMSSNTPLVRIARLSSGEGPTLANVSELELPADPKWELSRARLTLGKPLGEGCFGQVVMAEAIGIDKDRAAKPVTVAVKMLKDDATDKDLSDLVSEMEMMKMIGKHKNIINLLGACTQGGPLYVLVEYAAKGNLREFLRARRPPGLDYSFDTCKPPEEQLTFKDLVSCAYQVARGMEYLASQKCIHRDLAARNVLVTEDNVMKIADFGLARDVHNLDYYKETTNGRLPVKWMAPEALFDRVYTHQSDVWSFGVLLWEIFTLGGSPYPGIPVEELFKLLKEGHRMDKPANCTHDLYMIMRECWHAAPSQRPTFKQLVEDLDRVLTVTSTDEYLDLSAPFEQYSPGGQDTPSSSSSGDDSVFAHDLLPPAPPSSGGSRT
T3 sequence (Q02763 773-1124): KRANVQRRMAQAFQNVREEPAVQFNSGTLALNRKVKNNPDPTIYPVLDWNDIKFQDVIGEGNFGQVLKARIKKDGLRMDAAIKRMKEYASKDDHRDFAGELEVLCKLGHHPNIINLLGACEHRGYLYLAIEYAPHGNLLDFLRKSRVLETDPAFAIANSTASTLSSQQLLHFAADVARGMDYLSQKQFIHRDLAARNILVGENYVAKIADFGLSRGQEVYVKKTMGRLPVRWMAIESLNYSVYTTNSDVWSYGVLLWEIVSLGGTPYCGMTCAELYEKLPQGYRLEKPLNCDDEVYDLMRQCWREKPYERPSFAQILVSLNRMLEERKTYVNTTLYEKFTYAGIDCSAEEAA
T1 sequence (P35968 20-1356): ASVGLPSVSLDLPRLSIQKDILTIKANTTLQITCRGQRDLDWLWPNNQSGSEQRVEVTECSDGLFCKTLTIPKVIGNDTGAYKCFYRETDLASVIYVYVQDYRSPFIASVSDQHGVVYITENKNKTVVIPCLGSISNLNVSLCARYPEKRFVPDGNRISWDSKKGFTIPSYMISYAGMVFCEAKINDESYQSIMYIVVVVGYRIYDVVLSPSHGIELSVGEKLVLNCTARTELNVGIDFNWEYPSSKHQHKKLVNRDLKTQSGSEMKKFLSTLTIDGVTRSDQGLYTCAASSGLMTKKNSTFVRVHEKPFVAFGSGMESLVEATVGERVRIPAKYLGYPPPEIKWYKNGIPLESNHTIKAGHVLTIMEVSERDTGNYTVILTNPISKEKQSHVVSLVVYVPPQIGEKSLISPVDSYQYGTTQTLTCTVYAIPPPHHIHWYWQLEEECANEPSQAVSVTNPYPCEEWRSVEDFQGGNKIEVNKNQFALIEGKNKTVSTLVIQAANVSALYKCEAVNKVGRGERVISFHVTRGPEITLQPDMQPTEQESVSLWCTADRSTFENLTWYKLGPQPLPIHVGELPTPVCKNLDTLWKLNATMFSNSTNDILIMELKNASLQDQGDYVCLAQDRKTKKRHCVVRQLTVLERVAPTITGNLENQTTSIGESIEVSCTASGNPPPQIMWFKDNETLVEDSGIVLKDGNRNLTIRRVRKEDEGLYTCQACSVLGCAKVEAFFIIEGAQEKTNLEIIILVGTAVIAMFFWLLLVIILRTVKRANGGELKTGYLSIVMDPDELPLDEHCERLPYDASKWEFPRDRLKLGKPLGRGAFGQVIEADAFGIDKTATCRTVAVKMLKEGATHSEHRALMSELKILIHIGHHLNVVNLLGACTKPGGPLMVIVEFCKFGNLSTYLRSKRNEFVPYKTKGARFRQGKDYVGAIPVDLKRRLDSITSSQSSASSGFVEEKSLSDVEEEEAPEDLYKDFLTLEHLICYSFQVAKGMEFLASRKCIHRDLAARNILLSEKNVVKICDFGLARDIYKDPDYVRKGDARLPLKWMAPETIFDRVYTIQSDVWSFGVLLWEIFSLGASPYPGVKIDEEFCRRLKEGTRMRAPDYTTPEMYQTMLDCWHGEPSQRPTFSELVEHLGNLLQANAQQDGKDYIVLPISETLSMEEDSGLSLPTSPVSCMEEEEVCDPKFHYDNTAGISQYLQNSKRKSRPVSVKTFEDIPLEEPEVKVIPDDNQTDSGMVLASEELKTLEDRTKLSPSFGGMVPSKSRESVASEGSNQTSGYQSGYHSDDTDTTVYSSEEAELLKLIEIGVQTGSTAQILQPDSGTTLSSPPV
c-Abl, sequence (P00519 whole entry): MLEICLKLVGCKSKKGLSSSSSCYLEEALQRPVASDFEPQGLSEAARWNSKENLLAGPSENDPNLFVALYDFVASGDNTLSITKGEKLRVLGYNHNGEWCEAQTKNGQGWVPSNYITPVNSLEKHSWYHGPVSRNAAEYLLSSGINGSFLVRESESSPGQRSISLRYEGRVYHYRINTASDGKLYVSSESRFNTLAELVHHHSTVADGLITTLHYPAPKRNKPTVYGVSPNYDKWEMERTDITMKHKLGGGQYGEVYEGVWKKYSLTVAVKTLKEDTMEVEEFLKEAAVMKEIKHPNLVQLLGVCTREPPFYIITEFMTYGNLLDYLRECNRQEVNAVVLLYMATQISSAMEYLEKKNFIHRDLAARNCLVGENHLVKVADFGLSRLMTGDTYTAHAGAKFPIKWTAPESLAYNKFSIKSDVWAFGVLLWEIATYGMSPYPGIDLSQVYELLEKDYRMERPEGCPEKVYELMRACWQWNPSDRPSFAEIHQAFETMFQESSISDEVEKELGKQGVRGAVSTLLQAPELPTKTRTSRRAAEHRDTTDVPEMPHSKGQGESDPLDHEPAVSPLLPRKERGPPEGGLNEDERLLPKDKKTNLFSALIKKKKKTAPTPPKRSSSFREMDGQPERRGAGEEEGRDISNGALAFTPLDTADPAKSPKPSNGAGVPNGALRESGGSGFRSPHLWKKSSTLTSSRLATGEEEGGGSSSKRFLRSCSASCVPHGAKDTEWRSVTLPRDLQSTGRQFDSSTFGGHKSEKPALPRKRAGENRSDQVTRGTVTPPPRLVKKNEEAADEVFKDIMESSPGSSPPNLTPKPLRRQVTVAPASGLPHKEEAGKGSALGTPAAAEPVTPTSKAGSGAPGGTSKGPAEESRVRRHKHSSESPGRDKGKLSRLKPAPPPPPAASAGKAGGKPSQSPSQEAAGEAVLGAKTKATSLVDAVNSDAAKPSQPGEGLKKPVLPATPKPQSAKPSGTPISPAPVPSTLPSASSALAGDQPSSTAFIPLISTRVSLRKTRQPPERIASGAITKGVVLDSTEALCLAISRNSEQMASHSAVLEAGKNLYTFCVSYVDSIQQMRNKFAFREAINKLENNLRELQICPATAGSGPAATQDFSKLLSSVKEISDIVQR

Row | Structure (SMILES) | inhibition at 10 µM (KDR; 10 μM, Examples 171 to 206) [%] | inhibition at 10 µM (FGFR3 (K650E); [1]) [%] | inhibition at 10 µM (c-Abl) [%] | melting point | inhibition at 10 µM (KDR; 10 μM, Examples 1 to 169) [%] | inhibition at 10 µM (FGFR3 (K650E); [2]) [%] | inhibition at 10 µM (Tek) [%] | inhibition at 10 µM (KDR) [%] | inhibition at 10 µM (FGFR3 (K650E); read-out: FGFR3 (K650E) inhibition at 10 μM) [%]
1 | CN1CCN(c2ccc(Nc3cc(NC(=O)Nc4cc(Cl)c(Cl)cc4Cl)ncn3)cc2)CC1 [Example 74, 1-{6-[4-(4-Methyl-piperazin-1-yl)-phenylamino]-pyrimidin-4-yl}-3-(2,4,5-trichloro-phenyl)-urea] |  |  |  | 252 to 254 °C | 67 to 100 | 27 to 100 | 12 to 100 |  | 
2 | CN1CCC(COc2ccc(Nc3cc(NC(=O)Nc4c(Cl)cc(Cl)cc4Cl)ncn3)cc2)CC1 [Example 69, 1-{6-[4-(1-Methyl-piperidin-4-ylmethoxy)-phenylamino]-pyrimidin-4-yl}-3-(2,4,6-trichloro-phenyl)-urea] |  |  |  | 189 to 191 °C | 67 to 100 | 27 to 100 | 12 to 100 |  | 
3 | Cc1cccc(Cl)c1NC(=O)Nc1cc(NC(C)C)ncn1 [Example 65, 1-(2-Chloro-6-methyl-phenyl)-3-(6-isopropylamino-pyrimidin-4-yl)-urea] |  |  |  | 233 °C | 67 to 100 | 27 to 100 | 12 to 100 |  | 
4 | CC(C)Nc1cc(NC(=O)Nc2c(Cl)cc(Cl)cc2Cl)ncn1 [Example 67, 1-(6-Isopropylamino-pyrimidin-4-yl)-3-(2,4,6-trichloro-phenyl)-urea] |  |  |  | 218 to 220 °C | 67 to 100 | 27 to 100 | 12 to 100 |  | 
5 | CN1CCC(COc2cccc(Nc3cc(NC(=O)Nc4c(Cl)cccc4Cl)ncn3)c2)CC1 [Example 80, 1-(2,6-Dichloro-Phenyl)-3-{6-[3-(1-methyl-piperidin-4-ylmethoxy)-phenylamino]-pyrimidin-4-yl}-urea] |  |  |  | 198 to 200 °C | 67 to 100 | 27 to 100 | 12 to 100 |  | 
6 | CN1CCN(C(=O)c2ccc(Nc3cc(NC(=O)Nc4c(Cl)cc(Cl)cc4Cl)ncn3)cc2)CC1 [Example 85, 1-{6-[4-(4-Methyl-piperazin-1-carbonyl)-phenylamino]-pyrimidin-4-yl}-3-(2,4,6-trichloro-phenyl)-urea] |  |  |  | 165 to 175 °C | 67 to 100 | 27 to 100 | 12 to 100 |  | 
7 | CC(C)(C)[Si](C)(C)O[C@H]1CC[C@H](Nc2cc(NC(=O)Nc3c(Cl)cc(Cl)cc3Cl)ncn2)CC1 [Example 87, 1-{6-[(trans)-4-(tert-Butyl-dimethyl-silanyloxy)-cyclohexylamino]-pyrimidin-4-yl}-3-(2,4,6-trichloro-phenyl)-urea] |  |  |  | 198 to 199 °C |  |  | 12 to 100 | 67 to 100 | 27 to 100
8 | Cc1ccc(NC(=O)c2cccc(C(F)(F)F)c2)cc1NC(=O)N(C)c1cc(Nc2ccc(N3CCN(C)CC3)cc2)ncn1 [Example 171, N-[4-Methyl-3-(3-methyl-3-{6-[4-(4-methyl-piperazin-1-yl)-phenyl-amino]-pyrimidin-4-yl}-ureido)-phenyl]-3-trifluoromethyl-benzamide] | 87 to 100 | 56 to 98 | 79 to 100 | 189.5 to 191 °C |  |  |  |  | 
9 | CN1CCN(c2cccc(Nc3cc(NC(=O)Nc4c(Cl)cc(Cl)cc4Cl)ncn3)c2)CC1 [Example 86, 1-{6-[3-(4-Methyl-piperazin-1-yl)-phenylamino]-pyrimidin-4-yl}-3-(2,4,6-trichloro-phenyl)-urea] |  |  |  | 138 to 142 °C | 67 to 100 | 27 to 100 | 12 to 100 |  | 
10 | CN1CCN(c2ccc(Nc3cc(NC(=O)Nc4ccc(Cl)c(Cl)c4)ncn3)cc2)CC1 [Example 75, 1-(3,4-Dichloro-phenyl)-3-{6-[4-(4-methyl-piperazin-1-yl)-phenylamino]-pyrimidin-4-yl}-urea] |  |  |  | 260 to 262 °C | 67 to 100 | 27 to 100 | 12 to 100 |  | 

Second part, led by results:

Row | inhibition at 10 µM (KDR; 10 μM, Examples 171 to 206) [%] | inhibition at 10 µM (FGFR3 (K650E); [1]) [%] | inhibition at 10 µM (c-Abl) [%] | melting point | inhibition at 10 µM (KDR; 10 μM, Examples 1 to 169) [%] | inhibition at 10 µM (FGFR3 (K650E); [2]) [%] | inhibition at 10 µM (Tek) [%] | Structure (SMILES) | inhibition at 10 µM (KDR) [%] | inhibition at 10 µM (FGFR3 (K650E); read-out: FGFR3 (K650E) inhibition at 10 μM) [%]
11 | 87 to 100 | 56 to 98 | 79 to 100 | 191.5 to 193 °C |  |  |  | Cc1ccc(NC(=O)c2ccc(CN3CCN(C)CC3)c(C(F)(F)F)c2)cc1NC(=O)N(C)c1cc(N)ncn1 [Example 194, N-{3-[3-(6-Amino-pyrimidin-4-yl)-3-methyl-ureido]-4-methyl-phenyl}-4-(4-methyl-piperazin-1-ylmethyl)-3-trifluoromethyl-benzamide] |  | 
12 |  |  |  | 222 to 224 °C | 67 to 100 | 27 to 100 | 12 to 100 | O=C(Nc1cc(N[C@H]2CC[C@H](OC(=O)Nc3c(Cl)cccc3Cl)CC2)ncn1)Nc1c(Cl)cccc1Cl [Example 66, (2,6-dichloro-phenyl)-carbamic acid 4-{6-[3-(2,6-dichloro-phenyl)-ureido]-pyrimidin-4-ylamino}-cyclohexylester] |  | 
13 |  |  |  | 280 to 282 °C | 67 to 100 | 27 to 100 | 12 to 100 | CN1CCN(c2ccc(N(C(=O)Nc3cccc(Cl)c3Cl)c3cc(N)ncn3)cc2)CC1 [Example 76, 1-(6-Amino-pyrimidin-4-yl}-3-(2,3-dichloro-phenyl)-1-[4-(4-methyl-piperazin-1-yl)-phenyl]-urea] |  | 
14 |  |  |  | 149 to 152 °C | 67 to 100 | 27 to 100 | 12 to 100 | Cc1cccc(Cl)c1NC(=O)Nc1cc(N[C@H]2CC[C@H](O)CC2)ncn1 [Example 90, 1-(2-Chloro-6-methyl-phenyl)-3-[6-((trans)-4-hydroxy-cyclohexylamino)-pyrimidin-4-yl]-urea] |  | 
15 |  |  |  | 222 to 225 °C | 67 to 100 | 27 to 100 | 12 to 100 | CN1CCC(COc2cccc(Nc3cc(NC(=O)Nc4c(Cl)cc(Cl)cc4Cl)ncn3)c2)CC1 [Example 81, 1-{6-[3-(1-Methyl-piperidin-4-ylmethoxy)-phenylamino]-pyrimidin-4-yl}-3-(2,4,6-trichloro-phenyl)-urea] |  | 
16 |  |  |  | 221 °C (dec.) | 67 to 100 | 27 to 100 | 12 to 100 | COc1cc(OC)c(Cl)c(NC(=O)N(C)c2cc(Nc3ccc(N4CCN(C)CC4)cc3)ncn2)c1Cl [Example 2, 3-(2,6-Dichloro-3,5-dimethoxy-phenyl)-1-methyl-1-{6-[4-(4-methyl-piperazin-1-yl)-phenylamino]-pyrimidin-4-yl}-urea] |  | 
17 |  |  |  | 279 to 281 °C | 67 to 100 | 27 to 100 | 12 to 100 | CN1CCN(c2ccc(Nc3cc(NC(=O)Nc4cccc(Cl)c4Cl)ncn3)cc2)CC1 [Example 77, 1-(2,3-Dichloro-Phenyl)-3-{6-[4-(4-methyl-piperazin-1-yl)-phenylamino]-pyrimidin-4-yl}-urea] |  | 
18 |  |  |  | 209 to 211 °C | 67 to 100 | 27 to 100 | 12 to 100 | CN1CCN(c2ccc(Nc3cc(NC(=O)Nc4c(Cl)cc(Cl)cc4Cl)ncn3)cc2)CC1 [Example 73, 1-{6-[4-(4-Methyl-piperazin-1-yl)-phenylamino]-pyrimidin-4-yl}-3-(2,4,6-trichloro-phenyl)-urea] |  | 
